Laboratory results published in PubChem BioAssay AID1963854 (Molecular Pharmacology Branch, DTP, NCI, 2024).

Test system: 186277-243-T-J2-PDC complex spheroid viability
Experiment: Anticancer human tumor 186277-243-T-J2-PDC patient-derived colon adenocarcinoma cell line growth inhibition [POLQ]
Conditions: for IC50: curve of first compound; for viability, T/C: stronger effect = lower value
Summary of the method: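 Growth inhibition in 3D: complex spheroids (tumor PDC, HUVEC, MSC) treated with POLQ inhibitor combinations; where Cmax unknown, highest tested concentration 10 microM, except SN-38 at 1 microM.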

[1] = second compound 0.0316 µM, first compound 0.0316 µM
[2] = second compound 0.0316 µM, first compound 0.1 µM
[3] = second compound 0.0316 µM, first compound 0.316 µM
[4] = second compound 0.0316 µM, first compound 1 µM
[5] = second compound 0.0316 µM, first compound 3.16 µM
[6] = second compound 0.0316 µM, first compound 10 µM
[7] = second compound 0.1 µM, first compound 0.0316 µM
[8] = second compound 0.1 µM, first compound 0.1 µM
[9] = second compound 0.1 µM, first compound 0.316 µM
[10] = second compound 0.1 µM, first compound 1 µM
[11] = second compound 0.1 µM, first compound 3.16 µM
[12] = second compound 0.1 µM, first compound 10 µM
[13] = second compound 0.316 µM, first compound 0.0316 µM
[14] = second compound 0.316 µM, first compound 0.1 µM
[15] = second compound 0.316 µM, first compound 0.316 µM
[16] = second compound 0.316 µM, first compound 1 µM
[17] = second compound 0.316 µM, first compound 3.16 µM
[18] = second compound 0.316 µM, first compound 10 µM
[19] = second compound 1 µM, first compound 0.0316 µM
[20] = second compound 1 µM, first compound 0.1 µM
[21] = second compound 1 µM, first compound 0.316 µM
[22] = second compound 1 µM, first compound 1 µM
[23] = second compound 1 µM, first compound 3.16 µM
[24] = second compound 1 µM, first compound 10 µM
[25] = second compound 3.16 µM, first compound 0.0316 µM
[26] = second compound 3.16 µM, first compound 0.1 µM
[27] = second compound 3.16 µM, first compound 0.316 µM
[28] = second compound 3.16 µM, first compound 1 µM
[29] = second compound 3.16 µM, first compound 3.16 µM
[30] = second compound 3.16 µM, first compound 10 µM
[31] = second compound 10 µM, first compound 0.0316 µM
[32] = second compound 10 µM, first compound 0.1 µM
[33] = second compound 10 µM, first compound 0.316 µM
[34] = second compound 10 µM, first compound 1 µM
[35] = second compound 10 µM, first compound 3.16 µM
[36] = second compound 10 µM, first compound 10 µM
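Note: spheroids exposed to compounds for seven days.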
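Throughout, for viability, T/C: 100% = DMSO vehicle control viability.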

## O=C(Nc1ccc(O)c(NS(=O)(=O)c2ccc(F)cc2)c1)c1ccc(-c2ccccc2)cc1 + Nc1ccc(C#CCN(C(=O)Cc2ncc(C(F)(F)F)cc2C(F)(F)F)c2ccc(F)cc2)nn1
Second compound 0.0316 µM
  IC50: > 10000 nM
Second compound 0.1 µM
  IC50: > 10000 nM
Second compound 0.316 µM
  IC50: > 10000 nM
Second compound 1 µM
  IC50: > 10000 nM
Second compound 3.16 µM
  IC50: > 10000 nM
Second compound 10 µM
  IC50: > 10000 nM
[1]
  viability, T/C: 117%
[2]
  viability, T/C: 91%
[3]
  viability, T/C: 92.4%
[4]
  viability, T/C: 89.4%
[5]
  viability, T/C: 99.8%
[6]
  viability, T/C: 110%
[7]
  viability, T/C: 95.5%
[8]
  viability, T/C: 88.8%
[9]
  viability, T/C: 96.7%
[10]
  viability, T/C: 86.5%
[11]
  viability, T/C: 89.9%
[12]
  viability, T/C: 98%
[13]
  viability, T/C: 97.6%
[14]
  viability, T/C: 96%
[15]
  viability, T/C: 97.5%
[16]
  viability, T/C: 96.7%
[17]
  viability, T/C: 101%
[18]
  viability, T/C: 107%
[19]
  viability, T/C: 101%
[20]
  viability, T/C: 96.3%
[21]
  viability, T/C: 92.3%
[22]
  viability, T/C: 81.9%
[23]
  viability, T/C: 103%
[24]
  viability, T/C: 99.9%
[25]
  viability, T/C: 96.3%
[26]
  viability, T/C: 80.8%
[27]
  viability, T/C: 104%
[28]
  viability, T/C: 96.7%
[29]
  viability, T/C: 103%
[30]
  viability, T/C: 95.9%
[31]
  viability, T/C: 103%
[32]
  viability, T/C: 87.5%
[33]
  viability, T/C: 91.2%
[34]
  viability, T/C: 104%
[35]
  viability, T/C: 97.2%
[36]
  viability, T/C: 99.2%

## O=C(Nc1ccc(O)c(NS(=O)(=O)c2ccc(F)cc2)c1)c1ccc(-c2ccccc2)cc1 + Cc1cccc(N(C)C(=O)C2C(O)CCN2c2nc(C)cc(C(F)(F)F)c2C#N)c1
Second compound 0.0316 µM
  IC50: > 10000 nM
Second compound 0.1 µM
  IC50: > 10000 nM
Second compound 0.316 µM
  IC50: > 10000 nM
Second compound 1 µM
  IC50: > 10000 nM
Second compound 3.16 µM
  IC50: > 10000 nM
Second compound 10 µM
  IC50: > 10000 nM
[1]
  viability, T/C: 93.9%
[2]
  viability, T/C: 98.5%
[3]
  viability, T/C: 108%
[4]
  viability, T/C: 86.1%
[5]
  viability, T/C: 116%
[6]
  viability, T/C: 107%
[7]
  viability, T/C: 108%
[8]
  viability, T/C: 102%
[9]
  viability, T/C: 104%
[10]
  viability, T/C: 88.9%
[11]
  viability, T/C: 108%
[12]
  viability, T/C: 105%
[13]
  viability, T/C: 86.6%
[14]
  viability, T/C: 106%
[15]
  viability, T/C: 110%
[16]
  viability, T/C: 103%
[17]
  viability, T/C: 102%
[18]
  viability, T/C: 108%
[19]
  viability, T/C: 95%
[20]
  viability, T/C: 111%
[21]
  viability, T/C: 103%
[22]
  viability, T/C: 104%
[23]
  viability, T/C: 107%
[24]
  viability, T/C: 109%
[25]
  viability, T/C: 102%
[26]
  viability, T/C: 94.8%
[27]
  viability, T/C: 102%
[28]
  viability, T/C: 90.8%
[29]
  viability, T/C: 103%
[30]
  viability, T/C: 112%
[31]
  viability, T/C: 100%
[32]
  viability, T/C: 106%
[33]
  viability, T/C: 86.7%
[34]
  viability, T/C: 95.2%
[35]
  viability, T/C: 107%
[36]
  viability, T/C: 115%

## COc1cccc2c1C(=O)c1c(O)c3c(c(O)c1C2=O)CC(O)(C(=O)CO)CC3OC1CC(N)C(O)C(C)O1 (stereo not drawn) + COC1C(OC(N)=O)C(O)C(Oc2ccc3c(O)c(NC(=O)c4ccc(O)c(CC=C(C)C)c4)c(=O)oc3c2C)OC1(C)C
Second compound 0.0316 µM
  IC50: 77.7 nM
Second compound 0.1 µM
  IC50: 88.7 nM
Second compound 0.316 µM
  IC50: 91.6 nM
Second compound 1 µM
  IC50: 92.4 nM
Second compound 3.16 µM
  IC50: 92.1 nM
Second compound 10 µM
  IC50: 86.4 nM
[1]
  viability, T/C: 89.2%
[2]
  viability, T/C: 38.9%
[3]
  viability, T/C: 9.13%
[4]
  viability, T/C: 0.32%
[5]
  viability, T/C: 0.18%
[6]
  viability, T/C: 0.46%
[7]
  viability, T/C: 94.1%
[8]
  viability, T/C: 44.9%
[9]
  viability, T/C: 8.43%
[10]
  viability, T/C: 0.24%
[11]
  viability, T/C: 0.13%
[12]
  viability, T/C: 0.51%
[13]
  viability, T/C: 90.7%
[14]
  viability, T/C: 46.6%
[15]
  viability, T/C: 9.28%
[16]
  viability, T/C: 0.18%
[17]
  viability, T/C: 0.13%
[18]
  viability, T/C: 0.36%
[19]
  viability, T/C: 92.1%
[20]
  viability, T/C: 46.9%
[21]
  viability, T/C: 9.15%
[22]
  viability, T/C: 0.2%
[23]
  viability, T/C: 0.16%
[24]
  viability, T/C: 0.36%
[25]
  viability, T/C: 88.9%
[26]
  viability, T/C: 47%
[27]
  viability, T/C: 8.15%
[28]
  viability, T/C: 0.24%
[29]
  viability, T/C: 0.2%
[30]
  viability, T/C: 0.37%
[31]
  viability, T/C: 95.8%
[32]
  viability, T/C: 43.3%
[33]
  viability, T/C: 8.67%
[34]
  viability, T/C: 0.31%
[35]
  viability, T/C: 0.31%
[36]
  viability, T/C: 0.68%

## Nc1ccn(C2OC(CO)C(O)C2(F)F)c(=O)n1 (stereo not drawn) + COC1C(OC(N)=O)C(O)C(Oc2ccc3c(O)c(NC(=O)c4ccc(O)c(CC=C(C)C)c4)c(=O)oc3c2C)OC1(C)C
Second compound 0.0316 µM
  IC50: < 31.6 nM
Second compound 0.1 µM
  IC50: < 31.6 nM
Second compound 0.316 µM
  IC50: < 31.6 nM
Second compound 1 µM
  IC50: < 31.6 nM
Second compound 3.16 µM
  IC50: < 31.6 nM
Second compound 10 µM
  IC50: < 31.6 nM
[1]
  viability, T/C: 7.44%
[2]
  viability, T/C: 5.74%
[3]
  viability, T/C: 6.22%
[4]
  viability, T/C: 6.52%
[5]
  viability, T/C: 5.93%
[6]
  viability, T/C: 5.3%
[7]
  viability, T/C: 7.07%
[8]
  viability, T/C: 5.49%
[9]
  viability, T/C: 6.25%
[10]
  viability, T/C: 6.16%
[11]
  viability, T/C: 7.16%
[12]
  viability, T/C: 5.7%
[13]
  viability, T/C: 6.61%
[14]
  viability, T/C: 5.95%
[15]
  viability, T/C: 6.28%
[16]
  viability, T/C: 6.18%
[17]
  viability, T/C: 6.62%
[18]
  viability, T/C: 5.63%
[19]
  viability, T/C: 6.65%
[20]
  viability, T/C: 5.29%
[21]
  viability, T/C: 5.98%
[22]
  viability, T/C: 6.8%
[23]
  viability, T/C: 6.08%
[24]
  viability, T/C: 5.74%
[25]
  viability, T/C: 5.98%
[26]
  viability, T/C: 5.52%
[27]
  viability, T/C: 5.91%
[28]
  viability, T/C: 5.81%
[29]
  viability, T/C: 7.8%
[30]
  viability, T/C: 5.79%
[31]
  viability, T/C: 6.27%
[32]
  viability, T/C: 5.86%
[33]
  viability, T/C: 6.51%
[34]
  viability, T/C: 6.65%
[35]
  viability, T/C: 7.8%
[36]
  viability, T/C: 5.54%
